Experimental findings from patent EP1075186B1, “METHOD OF HSV PROPHYLAXIS” (The Children's Hospital Research Foundation, priority 1998, dated 1999) are described below.

Test [1] has as its system HSV-2. The test can be described thus: Cytopathic effect inhibition assay, HSV-2. It is filed as cell-based. The note with it: Human alphaherpesvirus 2; Table 19; read-out: EC50 HSV-2 CPE. Here is the method:
(§1) Newborn human foreskin were obtained as soon as possible after circumcisions were performed and placed in minimal essential medium (MEM) containing vacomycin, fungizone, penicillin, and gentamycin, at the usual concentrations, for four hours. The medium was then removed, the foreskin minced into small pieces and washed repeatedly until red cells were no longer present. The tissue was then trypsinized using trypsin at 0.25% with continuous stirring for 15 minutes at 37°C in a CO2 incubator. At the end of each 15 minute period, the tissue was allowed to settle to the bottom of the flask. The supernatant containing cells was poured through sterile cheesecloth into a flask containing MEM and 10% fetal bovine serum. The flask containing the medium was kept on ice through out the trypsinizing procedure. After each addition of cells, the cheesecloth was washed with a small amount of MEM containing serum. Fresh trypsin was added each time to the foreskin pieces and the procedure repeated until no more cells became available. The cell containing medium was then centrifuged at 1000 RPM at 4°C for ten minutes. The supernatant liquid was discarded and the cells resuspended in a small amount of MEM with 10% FBS. The cells were then placed in an appropriate number of 25 cm^2 tissue culture flasks. As cells became confluent and needed trypsinization, they were gradually expanded into larger flasks. […]
A general note: Cytopathic effects are the visible damage that an infection or toxin causes in cultured cells.

For test [2], the system named is HSV-1. The test can be described thus: Cytopathic effect inhibition assay, HSV-1. The format is cell-based. To be noted: Human alphaherpesvirus 1; Table 19; read-out: EC50 HSV-1 CPE. Here is the method: as §1
Test [3] concerns VZV. In words: Plaque reduction assay, VZV. It is filed as cell-based. More on the design: EC50 VZV Plaque: unit not given beside the values. How it is done: Two days prior to use, HFF cells are plated into six well plates and incubated at 37°C with 5% CO2 and 90% humidity. On the date of assay, the drug is made up at twice the desired concentration in 2X MEM and then serially diluted 1:5 in 2X MEM using six concentrations of drug. The initial starting concentration isusually 200 µg/ml down to 0.06 µg/ml. The virus to be used is diluted in MEM containing 10% FBS to a desired concentration which will give 20 - 30 plaques per well. […] The plates are then incubated for one hour with shaking every fifteen minutes. After the incubation period, an equal amount of 1% agarose was added to an equal volume of each drug dilution. This will give final drug concentrations beginning with 100 µg/ml and ending with 0.03 µg/ml and a final agarose overlay concentration of 0.5%. […] At the end of 4-6 hr incubation period, the stain is aspirated, and plaques counted using a stereomicroscope at 10X magnification. […] After addition of the drug, the plates are incubated for ten days. • 2. On days three and six an additional 1 ml overlay with equal amounts of 2X MEM and 1% agarose are added. The procedure for the liquid overlay plaque assay is similar to that using the agarose overlay. The procedure for adding the virus is the same as for the regular plaque assay. The drugs are made up in a concentration to be used in MEM with 2% FBS. […]
(Plaques are areas of infected cells; plaque reduction assays count them against a control.)

Test [4] deals with HSV-1. In words: Plaque reduction assay, HSV-1. The format is cell-based. To be noted: Human alphaherpesvirus 1; Table 19. How it is done: Two days prior to use, HFF cells are plated into six well plates and incubated at 37°C with 5% CO2 and 90% humidity. On the date of assay, the drug is made up at twice the desired concentration in 2X MEM and then serially diluted 1:5 in 2X MEM using six concentrations of drug. The initial starting concentration isusually 200 µg/ml down to 0.06 µg/ml. The virus to be used is diluted in MEM containing 10% FBS to a desired concentration which will give 20 - 30 plaques per well. […] The plates are then incubated for one hour with shaking every fifteen minutes. After the incubation period, an equal amount of 1% agarose was added to an equal volume of each drug dilution. This will give final drug concentrations beginning with 100 µg/ml and ending with 0.03 µg/ml and a final agarose overlay concentration of 0.5%. […] At the end of 4-6 hr incubation period, the stain is aspirated, and plaques counted using a stereomicroscope at 10X magnification. The procedure for the liquid overlay plaque assay is similar to that using the agarose overlay. The procedure for adding the virus is the same as for the regular plaque assay. The drugs are made up in a concentration to be used in MEM with 2% FBS. […] For CMV and VZV, no antibody in the overlay is utilized. For the CMV assay, additional medium without new drug is added on day six and allowed to incubate for a total of 11 days. […]

For test [5], the system named is EBV. In words: EBV screening test (IMN). It is filed as cell-based. To be noted: human gammaherpesvirus 4, Table 19.
For test [6], the system named is HSV-2 strain 186. The test can be described thus: Mouse genital HSV-2 model, intravaginal prophylaxis. It is filed as in vivo, Swiss Webster mice. To be noted: Table 21; for Virus Isolated / Dead: 2% intravaginal, one treatment just prior to HSV-2 challenge, 15 mice; for Virus Isolated: number of animals; for Dead: observed to day 21 PI. Here is the method:
Sixty female Swiss Webster mice pretreated with medroxyprogesterone acetate were randomized to four groups of 15 to receive either Saline (control), 2 % Acyclovir, 2 % Compound 96, or 0.5% Compound 96. Animals were anesthetized by intraperitoneal injection of sodium pentabarbital and then administered 15 µl of control or test compound intravaginally in one treatment. They were then immediately challenged by intravaginal instillation with 15 µl of a suspension containing 10^4 plaque forming units HSV-2 strain 186. Vaginal swabs were collected on days 1 and 2 post-inoculation (PI) to assess the effect of treatment on vaginal replication in the genital tract. In addition, all animals were examined daily until day 21 PI for mortality and signs of infection (erythema, hair loss and hind limb paralysis).

The test system of test [7] is HCMV. In words: Plaque reduction assay, HCMV. It is filed as cell-based. The note with it: Human betaherpesvirus 5, Table 19. How it is done: Two days prior to use, HFF cells are plated into six well plates and incubated at 37°C with 5% CO2 and 90% humidity. On the date of assay, the drug is made up at twice the desired concentration in 2X MEM and then serially diluted 1:5 in 2X MEM using six concentrations of drug. The initial starting concentration isusually 200 µg/ml down to 0.06 µg/ml. The virus to be used is diluted in MEM containing 10% FBS to a desired concentration which will give 20 - 30 plaques per well. The media is then aspirated from the wells and 0.2 ml of virus is added to drug toxicity wells. The plates are then incubated for one hour with shaking every fifteen minutes. After the incubation period, an equal amount of 1% agarose was added to an equal volume of each drug dilution. This will give final drug concentrations beginning with 100 µg/ml and ending with 0.03 µg/ml and a final agarose overlay concentration of 0.5%. The drug agarose mixture is applied to each well in 2 ml volume and the plates then incubated for three days, after which the cells were stained with a 1.5 % solution of neutral red. At the end of 4-6 hr incubation period, the stain is aspirated, and plaques counted using a stereomicroscope at 10X magnification.
The procedure is essentially the same as for HSV analysis with the following minor changes. […]

Test [8] relates to HCMV. To be noted: Table 19. How it is done: as §1
The test system of test [9] is HFF cells. In words: Cell proliferation assay. It is filed as cell-based, human. The note with it: Table 20; RAPIDLY GROWING CELLS. How it is done:
On the day of the assay, drugs are diluted serially in MEM containing 10% FBS at increments of 1:5 covering a range from 100 μg/ml to 0.03 μg/ml. For drugs that have to be solubilized in DMSO, control wells […] MEM containing 10% DMSO. The media from the wells is then aspirated and 2 ml of each drug concentration is then added to each well. The cells are then incubated in a CO2 incubator at 37°C for 72 hours. At the end of this time, the media-drug solution is removed and the cells washed. […] The cell-media mixture is then pipetted up and down vigorously to break up the cell suspension and 0.2 ml of the mixture is added to 9.8 ml of Isoton III and counted using a Coulter Counter. Each sample is counted three times with three replicate wells per sample.

Setting [10] is: 2%, mean log10 viral titers ± SEM, infected animals only.

SMILES strings stand for the structures. In brackets after ≈: the same amount, converted by molar mass. Several values for one entry are separate records, joined by “and”; a condition that tells them apart may be missing. Equal values may be shown once.

For the compound `Nc1nc2c(ncn2COCCO)c(=O)[nH]1` [Acyclovir], the EC50 (as a rule, the concentration at which the effect is half-maximal) in [1] was 0.7 µg/mL (≈ 3.11 µM); in test [2], 0.2 µg/mL (≈ 0.888 µM); in test [3] (Human alphaherpesvirus 3, Table 19) it was 3.2 µg/mL (≈ 14.2 µM); in test [4], 0.2 µg/mL (≈ 0.888 µM); in test [5] it was 6 µg/mL (≈ 26.6 µM). The “EC50 VZV Plaque” value in test [3] (Table 19, listed as ACV) was 4.4 and 3.1 and 3.0. Moreover, the “Virus Isolated” value is given as 12 in [6] and 12/15 in test [6] (listed as acyclovir). The figures for the Dead in test [6] and in [6] (listed as acyclovir) were 12 and 12/15, respectively. Also, the “Vaginal Virus Titer Day 1” value in [6] (setting [10]) turned out to be 1.96 ± 0.38 log10. In [6] (setting [10]), the “Vaginal Virus Titer Day 2” value stood at 3.82 ± 0.38 log10.
For `Nc1nc2c(ncn2COC(CO)CO)c(=O)[nH]1` [DHPG], the response in test [7] was half-maximal at 0.7 µg/mL (≈ 2.74 µM) (EC50). The compound further registered an EC50 HCMV CPE in test [8] of 0.8 µg/mL (≈ 3.13 µM).
As for `O=c1[nH]c(=O)n([C@@H]2O[C@H](CO)[C@@H](O)[C@@H]2F)cc1I` [FIAU, 2'-fluoro-5-iodo-arabinosyl-uracil], the “TOXICITY ASSAYS - IC50 CELL PROLIFERATION” value in test [9] was 3.3 MCG/ML and 8.4 MCG/ML.
